Measured values as given in patent US9067974B2, “Polymyxin derivatives and uses thereof” (priority 2006, dated 2015).

How the values were obtained:
[1] = tested on: E. coli IH3080 (K1:O18); test: Well diffusion growth inhibition on LB agar plates (direct antibacterial activity); format: cell-based, Escherichia coli
Protocol: Peptides synthesized in Example 1, all carrying at least two (2) but not more than three (3) positive charges, were studied for their ability to inhibit the growth of E. coli. This was tested employing LB agar (LB Agar Lennox, Difco, BD, Sparks, Md., U.S.A) plates. The indicator organism E. coli IH3080 (K1:O18) was an encapsulated strain originally isolated from a neonate suffering from meningitis (Vaara et al. 1984) and obtained from National Public Health Institute, Helsinki, Finland.
(§1) From an overnight-grown culture of IH3080 on LB agar, a suspension of approx. 10^8 cells/ml was prepared in 0.9% NaCl. Aliquots of this suspension were then pipetted on the agar plates and the plates were gently shaken to spread the suspension evenly on the entire surface of the plate. Thereafter, the unabsorbed part of the suspension was removed by using a Pasteur pipette. After the surface had dried, small wells (diameter, 2 mm) were drilled on the plates (five wells per plate) by using a sterile sharp-edged narrow metal tube, single-use pipette tip, and vacuum suction. […] Controls included 0.9% NaCl solution without the compound to be tested. The plates were then incubated for 18 h at 37° C. whereafter the diameters of growth inhibition zones around each well were measured; the diameter of the well itself was not reduced. Finally, the diameters were converted to surface areas of growth inhibition (in square mm).

[2] = tested on: E. coli IH3080; test: Sensitization to rifampin: well diffusion growth inhibition on LB plates containing rifampin; format: cell-based, Escherichia coli
Protocol: as §1

[3] = tested on: A. baumannii ATCC 19606; test: as above; format: cell-based, Acinetobacter baumannii; conditions: 4 μg of compound
[4] = tested on: Ps. aeruginosa ATCC 27853; test: as above; format: cell-based, Pseudomonas aeruginosa; conditions: 4 μg of compound
[5] = tested on: Acinetobacter baumannii ATCC 19606; test: Well diffusion growth inhibition on LB agar plates (direct antibacterial activity); format: cell-based; conditions: A. baumannii ATCC 19606
Protocol: (§2) From an overnight-grown culture of IH3080 on LB agar, a suspension of approx. 10^8 cells/ml was prepared in 0.9% NaCl. Aliquots of this suspension were then pipetted on the agar plates and the plates were gently shaken to spread the suspension evenly on the entire surface of the plate. Thereafter, the unabsorbed part of the suspension was removed by using a Pasteur pipette. After the surface had dried, small wells (diameter, 2 mm) were drilled on the plates (five wells per plate) by using a sterile sharp-edged narrow metal tube, single-use pipette tip, and vacuum suction. Samples (4 μl and 10 μl) of the peptide solution in 0.9% NaCl (at concentrations of 1 μg/ml and 0.1 μg/ml) were then pipetted to the wells and the sample fluids were allowed to absorb. Controls included 0.9% NaCl solution without the compound to be tested. The plates were then incubated for 18 h at 37° C. whereafter the diameters of growth inhibition zones around each well were measured; the diameter of the well itself was not reduced. Finally, the diameters were converted to surface areas of growth inhibition (in square mm).
(§3) Direct antibacterial activity of twelve NAB compounds against Acinetobacter baumannii ATCC 19606 and Pseudomonas aeruginosa ATCC 27853 was tested by using the susceptibility determination method described in Example 2. Five compounds (NAB7062, NAB734, NAB737, NAB739, and NAB740) had notable activity against A. baumannii. […] The antibacterial activity of NAB739 and NAB740 were as strong as or even stronger than that of polymyxin B.

[6] = tested on: Pseudomonas aeruginosa ATCC 27853; test: as above; format: cell-based; conditions: Ps. aeruginosa ATCC 27853
Protocol: as §2, §3

[7] = 4 μg of compound, rifampin 0 μg/ml
[8] = 4 μg of compound, rifampin 0.1 μg/ml
[9] = 4 μg of compound, rifampin 1.0 μg/ml

Molecule	Antibacterial activity (growth inhibition area around a well) ([1]; 4 μg of compound per well) [square millimeters]	Antibacterial activity (growth inhibition area around a well) ([1]; 10 μg of compound per well) [square millimeters]	Antibacterial activity in the presence of rifampin (growth inhibition area around a well) [2, 7] [square millimeters]	Antibacterial activity in the presence of rifampin (growth inhibition area around a well) [2, 8] [square millimeters]	Antibacterial activity in the presence of rifampin (growth inhibition area around a well) [2, 9] [square millimeters]	other results
OA-Thr-DThr-cy[Dab-Dab-DPhe-Thr-Dab-Dab-Thr-] [NAB 737]	133	201	133	177	201	Antibacterial activity in the presence of rifampin (growth inhibition area around a well) ([3]; rifampin 0 μg/ml): 38 square millimeters; Antibacterial activity in the presence of rifampin (growth inhibition area around a well) ([3]; rifampin 0.1 μg/ml): 201 square millimeters; Antibacterial activity in the presence of rifampin (growth inhibition area around a well) ([3]; rifampin 0.3 μg/ml): 283 square millimeters; Antibacterial activity in the presence of rifampin (growth inhibition area around a well) ([4]; rifampin 0 μg/ml): 0 square millimeters; Antibacterial activity in the presence of rifampin (growth inhibition area around a well) ([4]; rifampin 0.1 μg/ml): 20 square millimeters; Antibacterial activity in the presence of rifampin (growth inhibition area around a well) ([4]; rifampin 0.3 μg/ml): 20 square millimeters; Antibacterial activity (growth inhibition area around a well) ([5]; 4 μg per well): 38 square millimeters; Antibacterial activity (growth inhibition area around a well) ([5]; 10 μg per well): 79 square millimeters; Antibacterial activity (growth inhibition area around a well) ([6]; 4 μg per well): 0 square millimeters; Antibacterial activity (growth inhibition area around a well) ([6]; 10 μg per well): 28 square millimeters
Deacylcolistin [reference compound]	79	95	79	87	127	–
OA-Thr-Abu-cy[Dab-Dab-DPhe-Leu-Dab-Abu-Thr-] [NAB 709]	0	0	0	0	13	–
OA-Thr-Abu-cy[Dab-Lys-DPhe-Leu-Dab-Dab-Thr-] [NAB 731]	0	0	0	0	5	Antibacterial activity in the presence of rifampin (growth inhibition area around a well) ([2]; 10 μg of compound, rifampin 1.0 μg/ml): 22 square millimeters
Polymyxin B heptapeptide [reference compound]	0	0	0	0	38	–
MHA-Dab-Thr-Dab-cy[Dab-Dab-DPhe-Leu-Abu-Abu-Thr-] [NAB 721]	0	0	0	13	28	–
OA-Thr-Abu-cy[Dab-Abu-DPhe-Leu-Dab-Dab-Thr-] [NAB 710]	0	7	0	7	13	–
OA-DAla-DAla-cy[Dab-Dab-DPhe-Leu-Dab-Dab-Thr-] [NAB 733]	0	0	0	95	113	–
OA-Thr-Dab-cy[Dab-Abu-DPhe-Leu-Dab-Dab-Thr-] [NAB 715]	0	0	0	0	33	–
CO[C@H]1/C=C/O[C@@]2(C)Oc3c(C)c(O)c4c(O)c(c(/C=N/N5CCN(C)CC5)c(O)c4c3C2=O)NC(=O)/C(C)=C\C=C\[C@H](C)[C@H](O)[C@@H](C)[C@@H](O)[C@@H](C)[C@H](OC(C)=O)[C@@H]1C [rifampin, reference compound]	–	–	–	–	–	Concentration of rifampin needed for the inhibitory effect in the absence of the compounds tested ([2]; LB plates): 10 µg/mL
MHA-Abu-Thr-Abu-cy[Dab-Dab-DPhe-Leu-Dab-Dab-Thr-] [NAB 707]	5	7	5	87	113	–
OA-Abu-cy[Dab-Dab-DPhe-Leu-Dab-Dab-Thr-] [NAB 713]	0	0	0	20	38	–
MHA-Thr-Abu-cy[Dab-Dab-DPhe-Leu-Dab-Dab-Thr-] [NAB 706]	5	7	5	79	133	–
Deacylpolymyxin B [reference compound]	57	113	57	79	127	–
